According to PubChem BioAssay AID192 (DTP/NCI, 2004):
Several values for one entry are separate records, joined by “and”; a condition that tells them apart may be missing. Equal values may be shown once. Toxic doses and inconclusive results are not listed.

Test system: BDF1 mice, B16 melanoma ip, median survival T/C
Experiment: NCI In Vivo Anticancer Drug Screen. Data for tumor model B16 Melanoma (intraperitoneal) in B6D2F1 (BDF1) mice
Conditions: endpoint: median survival time, higher = longer survival
Procedure, shortened: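 Survival or tumor size is measured after treatment of tumor-bearing mice and normalised to the vehicle-treated control group.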

[1] = dose: 100.0 mg/kg/injection, schedule: Q01DX009 (ip), vehicle: Klucel (hydroxypropylcellulose) (HPC)
[2] = dose: 200.0 mg/kg/injection, schedule: Q01DX009 (ip), vehicle: Klucel (hydroxypropylcellulose) (HPC)
[3] = dose: 400.0 mg/kg/injection, schedule: Q01DX009 (ip), vehicle: Klucel (hydroxypropylcellulose) (HPC)
[4] = dose: 25.0 mg/kg/injection, schedule: Q04DX003 (ip), vehicle: Klucel (hydroxypropylcellulose) (HPC)
[5] = dose: 12.5 mg/kg/injection, schedule: Q01DX009 (ip), vehicle: Klucel (hydroxypropylcellulose) (HPC)
[6] = dose: 25.0 mg/kg/injection, schedule: Q01DX009 (ip), vehicle: Klucel (hydroxypropylcellulose) (HPC)
[7] = dose: 50.0 mg/kg/injection, schedule: Q01DX009 (ip), vehicle: saline
[8] = dose: 100.0 mg/kg/injection, schedule: Q01DX009 (ip), vehicle: saline
[9] = dose: 25.0 mg/kg/injection, schedule: Q01DX009 (ip), vehicle: saline with Tween-80
[10] = dose: 50.0 mg/kg/injection, schedule: Q01DX009 (ip), vehicle: saline with Tween-80
[11] = dose: 25.0 mg/kg/injection, schedule: Q04DX003 (ip), vehicle: saline
[12] = dose: 50.0 mg/kg/injection, schedule: Q04DX003 (ip), vehicle: saline
[13] = dose: 100.0 mg/kg/injection, schedule: Q01DX009 (ip), vehicle: saline with Tween-80
[14] = dose: 200.0 mg/kg/injection, schedule: Q01DX009 (ip), vehicle: saline with Tween-80
[15] = dose: 12.5 mg/kg/injection, schedule: Q01DX009 (ip), vehicle: saline
[16] = dose: 25.0 mg/kg/injection, schedule: Q01DX009 (ip), vehicle: saline
[17] = dose: 100.0 mg/kg/injection, schedule: Q04DX003 (ip), vehicle: Klucel (hydroxypropylcellulose) (HPC)
[18] = dose: 200.0 mg/kg/injection, schedule: Q04DX003 (ip), vehicle: Klucel (hydroxypropylcellulose) (HPC)
[19] = dose: 400.0 mg/kg/injection, schedule: Q04DX003 (ip), vehicle: Klucel (hydroxypropylcellulose) (HPC)
[20] = dose: 50.0 mg/kg/injection, schedule: Q01DX009 (ip), vehicle: Klucel (hydroxypropylcellulose) (HPC)

`CCCCCCCCCCCCSCCNC(=O)CCl` was tested, and the T/C [1] was 112 % of control, the T/C [2] was 100 % of control and the T/C [3] was 96 % of control.

`O=C(Nc1ccccc1)OCC(Cl)(Cl)Cl` was tested, and the T/C [1] was 114 % of control, the T/C [2] was 108 % of control and the T/C [3] was 102 % of control.

For `CC[N+](CC)(CC)CC.N#C/C([SH2+])=C(/[SH2+])C#N.N#C/C([SH2+])=C(/[SH2+])C#N.[Cu+2]`, the T/C (dose: 12.5 mg/kg/injection, schedule: Q04DX003 (ip), vehicle: Klucel (hydroxypropylcellulose) (HPC)) was 92 % of control and the T/C [4] was 89 % of control.

With `Cc1nc2ccc(CCN3CCN(c4ccccc4Cl)CC3)cc2[nH]1` the T/C (dose: 4.12 mg/kg/injection, schedule: Q01DX009 (ip), vehicle: saline) was 90 % of control and the T/C (dose: 8.25 mg/kg/injection, schedule: Q01DX009 (ip), vehicle: saline) was 92 % of control.

With `CCCCCCCCCCCCCCCC(=O)N(CCCN(C)C)CCCN(CCCN(C)C)C(=O)CCCCCCCCCCCCCCC` the T/C (dose: 1.56 mg/kg/injection, schedule: Q01DX009 (ip), vehicle: water) was 106 % of control, the T/C (dose: 3.13 mg/kg/injection, schedule: Q01DX009 (ip), vehicle: water) was 101 % of control and the T/C (dose: 6.25 mg/kg/injection, schedule: Q01DX009 (ip), vehicle: water) was 92 % of control. The T/C (dose: 12.5 mg/kg/injection, schedule: Q01DX009 (ip), vehicle: water) was 87 % of control.

With `COc1ccc(Cl)cc1NC(=O)c1ccccc1C(=O)O` the T/C [1] was 100 % of control and the T/C [2] was 94 % of control.

In the case of `CCNCc1cc(Nc2cc(C)nc(/N=C(\N)Nc3ccc(Cl)c(Cl)c3)n2)ccc1OC`, the T/C (dose: 6.25 mg/kg/injection, schedule: Q01DX009 (ip), vehicle: Klucel (hydroxypropylcellulose) (HPC)) is reported as 100 % of control, the T/C [5] is reported as 102 % of control and the T/C [6] is reported as 91 % of control.

For `O=[N+]([O-])c1ccc(/C=C2/c3cc(Cl)ccc3-c3c(Cl)cc(Cl)cc32)o1`, the T/C [7] was 93 % of control, the T/C [8] was 100 % of control and the T/C (dose: 200.0 mg/kg/injection, schedule: Q01DX009 (ip), vehicle: saline) was 90 % of control. The T/C (dose: 400.0 mg/kg/injection, schedule: Q01DX009 (ip), vehicle: saline) was 88 % of control.

For `CNC(=O)N(C)c1cc(N(C)C)nc(OC)n1`, the T/C (dose: 5.0 mg/kg/injection, schedule: Q01DX009 (ip), vehicle: Klucel (hydroxypropylcellulose) (HPC)) was 101 % of control, the T/C (dose: 10.0 mg/kg/injection, schedule: Q01DX009 (ip), vehicle: Klucel (hydroxypropylcellulose) (HPC)) was 93 % of control and the T/C (dose: 20.0 mg/kg/injection, schedule: Q01DX009 (ip), vehicle: Klucel (hydroxypropylcellulose) (HPC)) was 94 % of control.

For `Cc1c(N)nc(C(CC(N)=O)NCC(N)C(N)=O)nc1C(=O)NC(C(=O)NC(C)C(O)C(C)C(=O)NC(C(=O)NCCc1nc(-c2nc(C(=O)NCCCNCCCc3ccccn3)cs2)cs1)C(C)O)C(OC1OC(CO)C(O)C(O)C1OC1OC(CO)C(O)C(OC(N)=O)C1O)c1cnc[nH]1` (centres undefined), the T/C (dose: 1.5 mg/kg/injection, schedule: Q01DX009 (ip), vehicle: water) was 93 % of control, the T/C (dose: 3.0 mg/kg/injection, schedule: Q01DX009 (ip), vehicle: water) was 102 % of control and the T/C (dose: 6.0 mg/kg/injection, schedule: Q01DX009 (ip), vehicle: water) was 102 % of control and 105 % of control. For the same molecule, the T/C (dose: 12.0 mg/kg/injection, schedule: Q01DX009 (ip), vehicle: water) was 105 % of control and 110 % of control and the T/C (dose: 24.0 mg/kg/injection, schedule: Q01DX009 (ip), vehicle: water) was 100 % of control.

For `FC(F)(F)c1nc2nc(Cl)c(Cl)nc2[nH]1`, the T/C (dose: 12.5 mg/kg/injection, schedule: Q01DX009 (ip), vehicle: saline with Tween-80) was 116 % of control, the T/C [9] was 114 % of control and the T/C [10] was 98 % of control.

In the case of `CCC(=O)NCC1(c2ccccc2)CCN(CC2COc3ccccc3O2)CC1` (centres undefined), the T/C [11] is reported as 116 % of control, the T/C [12] is reported as 107 % of control and the T/C (dose: 100.0 mg/kg/injection, schedule: Q04DX003 (ip), vehicle: saline) is reported as 105 % of control.

In the case of `CC(C)CC(Br)C(=O)NCC(=O)NC(Cc1ccccc1)C(=O)O` (centres undefined), the T/C [10] is reported as 97 % of control, the T/C [13] is reported as 95 % of control and the T/C [14] is reported as 97 % of control.

In the case of `FC(F)(F)c1cc(CN(CCCl)CCCl)cc(C(F)(F)F)c1`, the T/C [15] is reported as 97 % of control and the T/C [16] is reported as 92 % of control.

For `O=S(=O)(O)c1ccc(/C2=c3\cc/c([n-]3)=C(\c3ccc(S(=O)(=O)O)cc3)c3ccc([n-]3)/C(c3ccc(S(=O)(=O)O)cc3)=c3/cc/c([n-]3)=C(\c3ccc(S(=O)(=O)O)cc3)c3ccc2[n-]3)cc1.[Co]`, the T/C (dose: 3.13 mg/kg/injection, schedule: Q01DX009 (ip), vehicle: saline) was 111 % of control, the T/C (dose: 6.25 mg/kg/injection, schedule: Q01DX009 (ip), vehicle: saline) was 107 % of control and the T/C [15] was 108 % of control. For the same molecule, the T/C [16] was 101 % of control.

`O=[N+]([O-])c1cccc(N=P(c2ccccc2)(c2ccccc2)c2ccccc2)c1` was tested, and the T/C [1] was 97 % of control, the T/C [2] was 101 % of control and the T/C [3] was 94 % of control.

With `Cc1ccc(S(=O)(=O)N(CCO)CC(C)O)cc1` (centres undefined) the T/C [17] was 105 % of control, the T/C [18] was 94 % of control and the T/C [19] was 100 % of control.

With `Cc1c(C)c([N+](=O)[O-])c(Br)c(C)c1[N+](=O)[O-]` the T/C [17] was 91 % of control and the T/C [18] was 98 % of control.

In the case of `N=C(N)CCNC(=O)C1CCC(N)=N1` (centres undefined), the T/C (dose: 0.75 mg/kg/injection, schedule: Q01DX009 (ip), vehicle: saline) is reported as 96 % of control, the T/C (dose: 1.5 mg/kg/injection, schedule: Q01DX009 (ip), vehicle: saline) is reported as 88 % of control and the T/C (dose: 3.0 mg/kg/injection, schedule: Q01DX009 (ip), vehicle: saline) is reported as 93 % of control. The T/C (dose: 6.0 mg/kg/injection, schedule: Q01DX009 (ip), vehicle: saline) was 99 % of control.

For `c1ccc2cc(-c3csc4ccccc34)ccc2c1`, the T/C [17] was 91 % of control, the T/C [18] was 97 % of control and the T/C [19] was 102 % of control.

For `NC(=O)N/N=C1\CC2C=CCC12` (centres undefined), the T/C [10] was 105 % of control, the T/C [13] was 97 % of control and the T/C [14] was 101 % of control.

In the case of `CN(Cc1ccccc1)Cc1ccccc1`, the T/C [6] is reported as 96 % of control, the T/C [4] is reported as 100 % of control and the T/C [20] is reported as 100 % of control. The T/C (dose: 50.0 mg/kg/injection, schedule: Q04DX003 (ip), vehicle: Klucel (hydroxypropylcellulose) (HPC)) was 97 % of control, the T/C [1] was 100 % of control and the T/C [17] was 97 % of control.

`C1=CCOCOC1` was tested, and the T/C (dose: 12.5 mg/kg/injection, schedule: Q04DX003 (ip), vehicle: saline) was 96 % of control, the T/C [11] was 107 % of control and the T/C [12] was 93 % of control.

In the case of `NC1=NC(=O)N2CC12` (centres undefined), the T/C [15] is reported as 100 % of control, the T/C [16] is reported as 103 % of control and the T/C [7] is reported as 105 % of control. The T/C [8] was 103 % of control.

For `C=C1N(C)c2ccc(Cl)cc2C1(C)C`, the T/C [5] was 90 % of control, the T/C [6] was 90 % of control and the T/C [20] was 88 % of control. For the same molecule, the T/C [1] was 87 % of control.

With `Cc1cc(O)c2c(c1O)C(=O)C13C(=C2O)C(=O)C2C(O)C1C1C(O)C3C(=O)C3=C(O)c4c(O)cc(C)c(O)c4C(=O)C321` (centres undefined) the T/C (dose: 0.19 mg/kg/injection, schedule: Q01DX009 (ip), vehicle: saline with Tween-80) was 105 % of control, the T/C (dose: 0.39 mg/kg/injection, schedule: Q01DX009 (ip), vehicle: saline with Tween-80) was 114 % of control and the T/C (dose: 0.78 mg/kg/injection, schedule: Q01DX009 (ip), vehicle: saline with Tween-80) was 121 % of control.

For `O=C(Nc1ccc2c(c1)OCO2)O/N=C1\C(=O)Nc2ccccc21`, the T/C (dose: 16.5 mg/kg/injection, schedule: Q04DX003 (ip), vehicle: saline with Tween-80) was 100 % of control, the T/C [9] was 109 % of control and the T/C (dose: 25.0 mg/kg/injection, schedule: Q04DX003 (ip), vehicle: saline with Tween-80) was 100 % of control. The T/C [11] was 153 % of control, the T/C (dose: 37.5 mg/kg/injection, schedule: Q04DX003 (ip), vehicle: saline with Tween-80) was 95 % of control and the T/C [10] was 104 % of control. For the same molecule, the T/C [13] was 100 % of control.

With `CC(=O)CCN1C(=O)c2ccccc2C1=O` the T/C [5] was 96 % of control, the T/C [6] was 103 % of control and the T/C [20] was 95 % of control (2×) and 101 % of control. For the same molecule, the T/C [1] was 99 % of control and 102 % of control and the T/C [2] was 94 % of control and 98 % of control and 112 % of control.

In the case of `COc1ccc(CN(CCN(C)C)c2ccccn2)cc1`, the T/C [5] is reported as 100 % of control, the T/C [6] is reported as 96 % of control and the T/C [20] is reported as 93 % of control.
